Results taken from patent US20070197632A1, “Aminocyclohexyl ether compounds and uses thereof” (Cardiome Pharma Corp, priority 2003, published 2007).
Counter-ions that a name gives are not always drawn. Like-named read-outs stand apart in the source and are kept apart here.

Assays:
[1] = system: conscious rats; test: Determination of CNS toxicity: convulsions in conscious rats under intravenous infusion; conditions: Table 5, comparative example compounds; for convulsion dose: minimum iv infusion rate at which partial or complete convulsions are observed; for cum conv dose: total amount of drug infused when convulsions are first observed
[2] = system: conscious rats; conditions: rat, in vivo, iv

## Cl.FC(F)(F)c1ccccc1CCO[C@H]1CCCC[C@H]1N1CCOCC1 (racemic) [Comparative Example Compound 42, (1R,2S)/(1S,2R)-2-(4-morpholinyl)-1-[(2-trifluoromethyl)-phenethoxy]-cyclohexane monohydrochloride]
[1]
  convulsion dose: 16 µmol/kg/min

## COc1ccc(CCOC2CCCC[C@H]2N2CCOCC2)cc1OC (stereo partly drawn) [Comparative Example Compound 9, hydrochloride]
[1]
  convulsion dose: 16 µmol/kg/min
  cum conv dose: 113 µmol/kg

## COc1ccc(CCO[C@H]2CCCCC2N2CCC3(C2)OCCO3)cc1OC (stereo partly drawn) [Comparative Example Compound 10, monohydrochloride]
[1]
  convulsion dose: 16 µmol/kg/min
  cum conv dose: 91.33 µmol/kg

## COc1ccc(CCO[C@H]2CCCCC2N2CCCC2)cc1OC (stereo partly drawn) [Comparative Example Compound 17, monohydrochloride]
[1]
  convulsion dose: 21.33 µmol/kg/min
  cum conv dose: 118 µmol/kg

## COc1ccc(CCOC2CCCC[C@H]2N2CCC(=O)C2)cc1OC.Cl (stereo partly drawn) [Comparative Example Compound 18, 1-{(1R,2R)/(1S,2S)-2-[2-(3,4-dimethoxyphenyl)-ethoxy]cyclohexyl}-pyrrolidin-3-one hydrochloride]
[1]
  convulsion dose: 32 µmol/kg/min

## COc1ccc(CCOC2CCCC[C@H]2N2CCN(C(=O)Cc3ccc(OC)c(OC)c3)CC2)cc1OC.Cl.Cl (stereo partly drawn) [Comparative Example Compound 22, 1-[(3,4-dimethoxyphenyl)acetyl]-4-{(1R,2R)/(1S,2S)-2-[2-(3,4-dimethoxyphenyl)-ethoxy]cyclohexyl}-piperazine hydrochloride]
[1]
  convulsion dose: 21.33 µmol/kg/min
  cum conv dose: 133 µmol/kg

## Cl.OC1CCN(C2CCCC[C@@H]2OCCc2c(Cl)cccc2Cl)C1 (stereo partly drawn) [Comparative Example Compound 23, (3R)/(3S)-1-{(1R,2R)/(1S,2S)-2-[2-(2,6-dichlorophenyl)-ethoxy]cyclohexyl}-pyrrolidin-3-ol hydrochloride]
[1]
  convulsion dose: 8 µmol/kg/min
  cum conv dose: 65 µmol/kg

## Cl.OC1CCN(C2CCCC[C@@H]2OCCc2ccccc2Br)C1 (stereo partly drawn) [Comparative Example Compound 24, (3R)/(3S)-1-{(1R,2R)/(1S,2S)-2-[2-(2-bromophenyl)-ethoxy]cyclohexyl}-pyrrolidin-3-ol hydrochloride]
[1]
  convulsion dose: 13 µmol/kg/min
  cum conv dose: 67 µmol/kg

## Cl.OC1CCN([C@@H]2CCCC[C@@H]2OCCc2cccc3ccccc23)C1 (stereo partly drawn) [Comparative Example Compound 25, (3R)/(3S)-1-{(1R,2S)/(1S,2R)-2-[2-(1-naphthyl)ethoxy]-cyclohexyl}-pyrrolidin-3-ol hydrochloride]
[1]
  convulsion dose: 16 µmol/kg/min
  cum conv dose: 70 µmol/kg

## Cl.OC1CCN(C2CCCC[C@@H]2OCCc2cccc3ccccc23)C1 (stereo partly drawn) [Comparative Example Compound 26, (3R)/(3S)-1-{(1R,2R)/(1S,2S)-2-[2-(1-naphthyl)ethoxy]-cyclohexyl}-pyrrolidin-3-ol hydrochloride]
[1]
  convulsion dose: 8 µmol/kg/min

## Cl.O[C@@H]1CCN(C2CCCC[C@@H]2OCCc2ccccc2C(F)(F)F)C1 (stereo partly drawn) [Comparative Example Compound 27]
[1]
  convulsion dose: 16 µmol/kg/min

## Cl.OC1CCN(C2CCCC[C@@H]2OCCn2ccc3ccccc32)C1 (stereo partly drawn) [Comparative Example Compound 28]
[1]
  convulsion dose: 16 µmol/kg/min

## c1ccc2cc(CCO[C@H]3CCCCC3N3CCOCC3)ccc2c1 (stereo partly drawn) [Comparative Example Compound 30, (1R,2R)/(1S,2S)-[2-(4-morpholinyl)-1-(2-naphihenethoxy)]-cyclohexane monohydrochloride]
[1]
  cum conv dose: 85 µmol/kg

## c1ccc2c(CCO[C@H]3CCCCC3N3CCOCC3)cccc2c1 (stereo partly drawn) [Comparative Example Compound 31, (1R,2R)/(1S,2S)-[2-(4-morpholinyl)-1-(1-naphthenethoxy)]-cyclohexane]
[1]
  convulsion dose: 16 µmol/kg/min
  cum conv dose: 93 µmol/kg

## Brc1ccc(CCO[C@H]2CCCCC2N2CCOCC2)cc1 (stereo partly drawn) [Comparative Example Compound 32]
[1]
  convulsion dose: 12 µmol/kg/min
  cum conv dose: 91 µmol/kg

## c1ccc2cc(OCCO[C@H]3CCCCC3N3CCOCC3)ccc2c1 (stereo partly drawn) [Comparative Example Compound 33, (1R,2R)/(1S,2S)-[2-(4-morpholinyl)-1-[2-(2-naphthoxy)ethoxy]]-cyclohexane]
[1]
  convulsion dose: 8 µmol/kg/min

## Brc1ccc(OCCO[C@H]2CCCCC2N2CCOCC2)cc1 (stereo partly drawn) [Comparative Example Compound 34, (1R,2R)/(1S,2S)-[2-(4-morpholinyl)-1-[2-(4-bromophenoxy)-ethoxy]]cyclohexane]
[1]
  cum conv dose: 83 µmol/kg

## COc1ccc(CCO[C@H]2CCCCC2N2CCOCC2)cc1OC (stereo partly drawn) [Comparative Example Compound 35, (1R,2R)/(1S,2S)-[2-(4-morpholinyl)-1-(3,4-dimethoxy-phenethoxy)]-cyclohexane]
[1]
  convulsion dose: 16 µmol/kg/min

## c1ccc2c(CCO[C@H]3CCCCC3N3CCOCC3)csc2c1 (stereo partly drawn) [Comparative Example Compound 36]
[1]
  convulsion dose: 8 µmol/kg/min
  cum conv dose: 65 µmol/kg

## c1cc(CCO[C@H]2CCCCC2N2CCOCC2)c2ccsc2c1 (stereo partly drawn) [Comparative Example Compound 37]
[1]
  convulsion dose: 8 µmol/kg/min
  cum conv dose: 54 µmol/kg

## Brc1cccc(CCO[C@H]2CCCCC2N2CCOCC2)c1 (stereo partly drawn) [Comparative Example Compound 38, (1R,2R)/(1S,2S)-[2-(4-morpholinyl)-1-(3-bromophenethoxy)]-cyclohexane]
[1]
  convulsion dose: 16 µmol/kg/min

## Brc1ccccc1CCO[C@H]1CCCCC1N1CCOCC1 (stereo partly drawn) [Comparative Example Compound 39, (1R,2R)/(1S,2S)-[2-(4-morpholinyl)-1-(2-bromophenethoxy)]-cyclohexane]
[1]
  convulsion dose: 16 µmol/kg/min

## Clc1ccc(CCO[C@H]2CCCCC2N2CCOCC2)cc1Cl (stereo partly drawn) [Comparative Example Compound 40, (1R,2R)/(1S,2S)-2-(4-morpholinyl)-1-(3,4-dichlorophenethoxy)cyclo-hexane]
[1]
  convulsion dose: 16 µmol/kg/min

## Cl.O=C1CCN(C2CCCC[C@@H]2OCCc2c(Cl)cccc2Cl)C1 (stereo partly drawn) [Comparative Example Compound 41, (1R,2R)/(1S,2S)-2-(3-ketopyrrolidinyl)-1-(2,6-dichlorophenethoxy)cyclo-hexane monohydrochloride]
[1]
  convulsion dose: 32 µmol/kg/min
  cum conv dose: 190 µmol/kg

## CC(=O)OC1CCN([C@@H]2CCCCC2OCCc2cccc3ccccc23)C1.Cl (stereo partly drawn) [Comparative Example Compound 43, (1R,2R)/(1S,2S)-2-(3-acetoxypyrrolidinyl)-1-(1-naphthenethoxy)cyclo-hexane monohydrochloride]
[1]
  convulsion dose: 8 µmol/kg/min
  cum conv dose: 65 µmol/kg

## Cl.Clc1cccc(Cl)c1COC1CCCC[C@H]1N1CCOCC1 (stereo partly drawn) [Comparative Example Compound 44, (1R,2R)/(1S,2S)-2-(4-morpholinyl)-1-[(2,6-dichlorophenyl)methoxy]-cyclohexane monohydrochloride]
[1]
  convulsion dose: 16 µmol/kg/min
  cum conv dose: 97 µmol/kg

## Cl.O=C1CCN([C@@H]2CCCCC2OCc2c(Cl)cccc2Cl)C1 (stereo partly drawn) [Comparative Example Compound 45, (1R,2R)/(1S,2S)-2-(3-ketopyrrolidinyl)-1-[(2,6-dichlorophenyl)methoxy]-cyclohexane monohydrochloride]
[1]
  convulsion dose: 32 µmol/kg/min

## Cl.OC1CCN(C2CCCC[C@@H]2OCCc2c(Cl)cccc2Cl)C1 (stereo partly drawn) [Comparative Example Compound 46, (1R,2R)/(1S,2S)-2-(3-hydroxypyrrolidinyl)-1-(2,6-dichlorophenethoxy)cyclo-hexane monohydrochloride]
[1]
  convulsion dose: 8 µmol/kg/min

## Cl.O=C1CCN(C2CCCC[C@@H]2OCC(c2ccccc2)c2ccccc2)C1 (stereo partly drawn) [Comparative Example Compound 47, (1R,2R)/(1S,2S)-2-(3-ketopyrrolidinyl)-1-(2,2-diphenylethoxy)cyclo-hexane monohydrochloride]
[1]
  convulsion dose: 21 µmol/kg/min

## Cl.Clc1cccc(Cl)c1CCOC1CCCC[C@H]1N1CCSC1 (stereo partly drawn) [Comparative Example Compound 48, (1R,2R)/(1S,2S)-2-(3-thiazolidinyl)-1-(2,6-dichlorophenethoxy)cyclo-hexane monohydrochloride]
[1]
  convulsion dose: 43 µmol/kg/min

## Cl.Clc1cccc(Cl)c1CCO[C@@H]1CCCC[C@H]1N1CCSC1 [Comparative Example Compound 48, (1R,2R)/(1S,2S)-2-(3-thiazolidinyl)-1-(2,6-dichlorophenethoxy)cyclo-hexane monohydrochloride]
[1]
  convulsion dose: 8 µmol/kg/min
  cum conv dose: 44.4 µmol/kg

## COc1ccc(CCO[C@H]2CCCC[C@@H]2N2CC[C@@H](O)C2)cc1OC.Cl [Compound 2, (1S,2S)-2-[(3R)-Hydroxypyrrolidinyl]-1-(3,4-dimethoxyphenethoxy)-cyclohexane monohydrochloride]
[2]
  convulsion dose: 64 µmol/kg/min

## COc1ccc(CCO[C@H]2CCCCC2N2CCC(O)C2)cc1OC (stereo partly drawn) [Compound 3, (1R,2R)/(1S,2S)-2-[(3R)/(3S)-Hydroxypyrrolidinyl]-1-(3,4-dimethoxyphenethoxy)-cyclohexane monohydrochloride]
[2]
  convulsion dose: 64 µmol/kg/min

## COc1ccc(CCO[C@H]2CCCCC2N2CC[C@@H](O)C2)cc1OC.Cl (stereo partly drawn) [Compound 4, (1R,2R)/(1S,2S)-2-[(3R)-Hydroxypyrrolidinyl]-1-(3,4-dimethoxyphenethoxy)-cyclohexane monohydrochloride]
[2]
  convulsion dose: 64 µmol/kg/min

## COc1ccc(CCO[C@H]2CCCCC2N2CC[C@H](O)C2)cc1OC.Cl (stereo partly drawn) [Compound 5, (1R,2R)/(1S,2S)-2-[(3s)-Hydroxypyrrolidinyl]-1-(3,4-dimethoxyphenethoxy)-cyclohexane monohydrochloride]
[2]
  convulsion dose: 64 µmol/kg/min

## COc1ccc(CCO[C@@H]2CCCC[C@H]2N2CC[C@H](O)C2)cc1OC.Cl [Compound 6, (1R,2R)-2-[(3S)-Hydroxypyrrolidinyl]-1-(3,4-dimethoxyphenethoxy)-cyclohexane monohydrochloride]
[2]
  convulsion dose: 64 µmol/kg/min
